This is an account of results in patent US20110045100A1, “Antimalarial Quinolines and Methods of Use Thereof” (GEORGETOWN UNIVERSITY, priority 2008, published 2011).

Experiment [1] concerns Dd2 (chloroquine resistant strain of P. falciparum). Kind of experiment: SYBR Green I antiplasmodial assay, strain Dd2. It is filed as cell-based, Plasmodium falciparum. The settings on record: for activity against the CQ resistant strain Dd2 in comparison with CQ: compared with CQ. An excerpt: (§1) Bennett T. N.; Paguio, M.; Gligorijevic, B.; Seudieu, C.; Kosar, A. D.; Davidson, E.; Roepe, P. D. Novel, rapid, and inexpensive cell-based quantification of antimalarial drug efficacy. Antimicrob. Agents Chemother. 2004, 48, 1807-1810; Smilkstein, M.; Sriwilaijaroen, N.; Kelly, J. X.; Wilairat, P.; Riscoe, M. Simple and inexpensive fluorescence-based technique for high-throughput antimalarial drug screening. Antimicrob. Agents Chemother. 2004, 48, 1803-1806; and Johnson, J. D.; Dennull, R. A.; Gerena, L.; Lopez-Sanchez, M.; Roncal, N. E.; Waters, N.C. Assessment and continued validation of the malaria SYBR green I-based fluorescence assay for use in malaria drug screening. Antimicrob. Agents Chemother. 2007, 51, 1926-1933. […] Drake, N. L.; Creech, H. J.; Garman, J. A.; Haywood, S. T.; Peck, R. M.; van Hook, J. O.; Walton, E. Synthetic antimalrials. The preparation of certain 4-aminoquinolines. J. Am. Chem. Soc. […] Trans. R. Soc. Trop. Med. Hyg. […] J. Parasitol. 1983, 69, 97-105. The selectivity index provides a quantitative measure of the antimalarial activity against CQR strains relative to that against sensitive strains and thus indicates promising drug discovery leads. […] This can be combined with the introduction of a third basic amino function which should further favor accumulation of the drug within the acidic food vacuole of the parasite.
The antiplasmodial activity of these compounds was measured versus a CQS (HB3) and a CQR (Dd2) strain using a standardized, inexpensive assay based on SYBR Green I intercalation. Bennett T. N.; Paguio, M.; Gligorijevic, B.; Seudieu, C.; Kosar, A. D.; Davidson, E.; Roepe, P. D. Antimicrob. Agents Chemother. 2004, 48, 1807-1810; Smilkstein, M.; Sriwilaijaroen, N.; Kelly, J. X.; Wilairat, P.; Riscoe, M. Antimicrob. Agents Chemother. 2004, 48, 1803-1806; and Johnson, J. D.; Dennull, R. A.; Gerena, L.; Lopez-Sanchez, M.; Roncal, N. E.; Waters, N.C. Antimicrob. Agents Chemother. 2007, 51, 1926-1933. […] De, D.; Krogstad, F. M.; Cogswell, F. B.; Krogstad, D. J. Am. J. Trop. Med. Hyg. 1996, 55, 579-583. […] The basic tertiary amino function in the side chain is commonly believed to be crucial for the accumulation of the drug within the acidic food DV.
(§2) Drug activities were assessed and IC50 were quantified essentially as described previously. Delarue, S.; Girault, S.; Maes, L.; Debreu-Fontaine, M. A.; Labaeid, M.; Grellier, P.; Sergheraert, C. Synthesis and in vitro and in vivo antimalarial activity of new 4-anilinoquinolines. J. Med. Chem. 2001, 44, 2827-2833; and O'Neill, P. M.; Willock, D. J.; Hawley, S. R.; Bray, P. G.; Storr, R. C.; Ward, S. A.; Park, B. K. Synthesis, antimalarial activity, and molecular modeling of tebuquine analogues. J. Med. Chem. 1997, 40, 437-448. The aminoquinolines were diluted using complete media under sterile conditions and plated in a 96 well plate format. Sorbitol synchronized cultures were utilized with >95% of the parasites at the ring stage. Cultures were diluted to give a working stock of 0.5% parasitemia and 2% hematocrit (final hematocrit 1% & 0.5% Parasitemia). The plates were incubated for 72 h at 37° C. After 72 h, 50 μL of 10×SYBR green I dye was added to each well, and the plate was incubated for 1 h at 37° C. Fluorescence was measured at 530 nm (490 nm excitation) using a spectra geminiEM plate reader. Data analysis was performed using sigma plot 9.0 software after downloading data in Excel format.

For experiment [2], the system named is CQS (HB3, GCO3) and CQR (Dd2, FCB) strains of P. falciparum. Kind of experiment: SYBR Green I antiplasmodial assay, several CQS and CQR strains. It is filed as cell-based, Plasmodium falciparum. Particulars: for activity vs. both CQR and CQS strains relative to 93: FIG. 23.
Description: as §1
Bennett T. N.; Paguio, M.; Gligorijevic, B.; Seudieu, C.; Kosar, A. D.; Davidson, E.; Roepe, P. D. Novel, rapid, and inexpensive cell-based quantification of antimalarial drug efficacy. Antimicrob. Agents Chemother. 2004, 48, 1807-1810; Smilkstein, M.; Sriwilaijaroen, N.; Kelly, J. X.; Wilairat, P.; Riscoe, M. Simple and inexpensive fluorescence-based technique for high-throughput antimalarial drug screening. Antimicrob. Agents Chemother. 2004, 48, 1803-1806; and Johnson, J. D.; Dennull, R. A.; Gerena, L.; Lopez-Sanchez, M.; Roncal, N. E.; Waters, N.C. Assessment and continued validation of the malaria SYBR green I-based fluorescence assay for use in malaria drug screening. Antimicrob. Agents Chemother. 2007, 51, 1926-1933.
Drug activities were assessed and IC50 were quantified essentially as described previously. Delarue, S.; Girault, S.; Maes, L.; Debreu-Fontaine, M. A.; Labaeid, M.; Grellier, P.; Sergheraert, C. Synthesis and in vitro and in vivo antimalarial activity of new 4-anilinoquinolines. J. Med. Chem. 2001, 44, 2827-2833; and O'Neill, P. M.; Willock, D. J.; Hawley, S. R.; Bray, P. G.; Storr, R. C.; Ward, S. A.; Park, B. K. Synthesis, antimalarial activity, and molecular modeling of tebuquine analogues. J. Med. Chem. 1997, 40, 437-448.

Experiment [3] concerns FCB (CQR strain of P. falciparum). Kind of experiment: SYBR Green I antiplasmodial assay, strain FCB. It is filed as cell-based, Plasmodium falciparum. Particulars: compared with CQ.
Description: as §1, §2

The subject of experiment [4] is CQS and CQR strains of P. falciparum. The settings on record: cited from earlier work; for antimalarial activity against certain CQS and CQR strains relative to chloroquine, reported by Jensen: diastereomeric mixtures.

In the case of `CCN(CCNc1ccnc2cc(Cl)ccc12)CCNS(=O)(=O)c1cccc2cccnc12` [compound 33], the “activity against Dd2 in words” value in experiment [1] is listed as “relatively high activity”.
Regarding `NCCCN(C(=O)c1ccc(F)cc1NCc1ccccc1)c1ccnc2cc(Cl)ccc12` [compound 53, N-(7-Chloro-4-quinolyl)-N-(2-benzylamino-4-fluorobenzoyl)-1,3-diaminopropane], in experiment [1], the “activity against Dd2 compared with HB3” value is listed as “significantly more active against Dd2 than HB3”.
With `CCN(CC)CCCCCOc1ccnc2cc(Cl)ccc12` [compound 94, O-(7-Chloro-4-quinolyl)-5-(N,N-diethylamino)pentanol], in experiment [2] (Plasmodium falciparum, read-out: IC50 vs. CQR parasites), the IC50 was ~1000 nM.
As for `CCN(CC)CCCN(CC)CCCNc1ccnc2cc(Cl)ccc12` [5b, N-(7-Chloro-4-quinolyl)-N-ethyl-N-(3-diethylaminopropyl)-1,3-diaminopropane], the “potency against FCB in comparison with CQ” value (from here on “potency against FCB”) in experiment [3] was “significantly more potent”. Moreover, the “activity against the CQ resistant strain Dd2 in comparison with CQ” value (shortened to “activity … with CQ”) in experiment [1] is “clearly superior activity”.
`CC(C)NC1CCC(Nc2ccnc3cc(Cl)ccc23)CC1` (centres unmarked) [17b, N-(7-Chloro-4-quinolyl)-N′-isopropyl-1,4-diaminocyclohexane]: the “potency against FCB” value in experiment [3] is “significantly more potent”. Further, the “activity … with CQ” value in experiment [1] is “clearly superior activity”.
On to `CCN(CC)CCCN(CC)CCCCCNc1ccnc2cc(Cl)ccc12` [5d, N-(7-Chloro-4-quinolyl)-N-ethyl-N-(3-diethylaminopropyl)-1,5-diaminopentane], for which, in experiment [3], the “potency against FCB” value was “significantly more potent”. For the same compound, the “activity … with CQ” value in experiment [1] was “clearly superior activity”.
On to `CCNC1CCCC(N(CC)c2ccnc3cc(Cl)ccc23)C1` (centres unmarked) [16a, N-(7-Chloro-4-quinolyl)-N,N′-diethyl-1,3-diaminocyclohexane], for which the “antimalarial activity against certain CQS and CQR strains relative to chloroquine, reported by Jensen” value in experiment [4] is on record as “higher antimalarial activity”. In addition, the “activity … with CQ” value in experiment [1] was “clearly superior activity”.
For the compound `CCN(CC)CC(CN(CC)CC)Oc1ccnc2cc(Cl)ccc12` [compound 101, 7-Chloro-4-(1′,3′-bis(diethylamino)-2′-propoxy)quinoline], the “activity vs. both CQR and CQS strains relative to 93” value in experiment [2] was “significantly less active”.
For `CCNC1CCC(N(CC)c2ccnc3cc(Cl)ccc23)CC1` (centres unmarked) [17a, N-(7-Chloro-4-quinolyl)-N,N′-diethyl-1,4-diaminocyclohexane], the “potency against FCB” value in experiment [3] is reported as “significantly more potent”. Also, the “antimalarial activity against certain CQS and CQR strains relative to chloroquine, reported by Jensen” value in experiment [4] is recorded as “higher antimalarial activity”. In addition, the “activity … with CQ” value in experiment [1] was “clearly superior activity”.
With `CCNCCCC(C)Nc1ccnc2cc(Cl)ccc12` (centres unmarked) [desethyl CQ, reference compound], the “activity vs. some CQR strains relative to CQ, previous studies” value in experiment [4] (some CQR strains) is recorded as “lower activity”.
Regarding `CCN(CC)CCCCC(CCCCN(CC)CC)Oc1ccnc2cc(Cl)ccc12` [compound 103, 7-Chloro-4-(1′,9′-bis(diethylamino)-5′-nonoxy)quinoline], in experiment [2], the “activity vs. both CQR and CQS strains relative to 93” value is on record as “improved activity”.
Take `CCN(CC)CCCN(CC)CCNc1ccnc2cc(Cl)ccc12` [5a, N-(7-Chloro-4-quinolyl)-N-ethyl-N-(3-diethylaminopropyl)-1,2-diaminoethane]: the “potency against FCB” value in experiment [3] was “significantly more potent”. For the same compound, the “activity … with CQ” value in experiment [1] is “clearly superior activity”.
As to `CCN(CC)CCNc1ccnc2cc(Cl)ccc12` [compound 86, N-(7-Chloro-4-quinolyl)-N′,N′-diethyl-1,2-diaminoethane], the “IC50 vs. CQR strains, earlier reports” value in experiment [4] was “substantially lower IC50”.
As to `CC(C)NC1CCCC(Nc2ccnc3cc(Cl)ccc23)C1` (centres unmarked) [16b, N-(7-Chloro-4-quinolyl)-N′-isopropyl-1,3-diaminocyclohexane], the “activity … with CQ” value in experiment [1] is recorded as “clearly superior activity”.
Turning to `CCN(CC)CCCNc1ccnc2cc(Cl)ccc12` [compound 87, N-(7-Chloro-4-quinolyl)-N′,N′-diethyl-1,3-diaminopropane], the “IC50 vs. CQR strains, earlier reports” value in experiment [4] is “substantially lower IC50”.
`CCN(CC)CCCN(CCCN)c1ccnc2cc(Cl)ccc12` [4b, N-(7-Chloro-4-quinolyl)-N-(3-diethylaminopropyl)-1,3-diaminopropane]: in experiment [3], the “potency against FCB” value is “significantly more potent”. The “activity … with CQ” value in experiment [1] is recorded as “clearly superior activity”.
`CCNCCNc1ccnc2cc(Cl)ccc12` [compound 81, N-(7-Chloro-4-quinolyl)-N′-ethyl-1,2-diaminoethane]: the “IC50 vs. CQR strains, earlier reports” value in experiment [4] was “high IC50”.
With `CCNCCCNc1ccnc2cc(Cl)ccc12` [compound 82, N-(7-Chloro-4-quinolyl)-N′-ethyl-1,3-diaminopropane], in experiment [4], the “IC50 vs. CQR strains, earlier reports” value is reported as “high IC50”.

Broadly, the IC50 is the point on the concentration scale where inhibition reaches its midpoint.
